Converted amounts (≈) assume the structure as drawn. Where a name gives a salt, the structure may show the parent alone. Read-outs that look alike come from different tables or passages of the source. Blank lines part the entries; values can stand above or below the compound they belong to.
Key:
[1] = test system: gastric pH; details: cited from earlier work
[2] = test system: gastric pH; assay: Intra-gastric pH monitoring with the Heidelberg pH capsule; assay type: in vivo, human
[3] = administered with Coca-Cola (pH = 2.5) compared to water; cited from earlier work
[4] = cited from earlier work
[5] = test system: P-gp; details: cited from earlier work
[6] = cited from earlier work; remark: listed apart in the source
[7] = addition of 100 mg ritonavir to 300 mg atazanavir; cited from earlier work
[8] = human, in vivo
[9] = fed state, rabeprazole pretreated

Compound: C[N+](C)(C)CC(=O)O [BHCl, betaine hydrochloride]
- Average onset of effect (time to achieve a pH < 3) ([1]; pilot study, rabeprazole-pretreated healthy volunteers): ~5 minutes
- Lowest observed gastric pH ([2]; 1500 mg BHCl after rabeprazole pretreatment, fed state, mean ± SD): 0.838 ±0.391
- Length of the reacidification period (time for gastric pH to rebound to pH >4) [2, 9]: 76 ±20 minutes
- Time to achieve lowest gastric pH after BHCl administration [2, 9]: 67 ±33 minutes

Compound: CC[C@@H]([C@H](C)O)n1ncn(-c2ccc(N3CCN(c4ccc(OC[C@@H]5CO[C@@](Cn6cncn6)(c6ccc(F)cc6F)C5)cc4)CC3)cc2)c1=O [posaconazole]
- Increase in systemic exposure [3]: > 70%

Compound: COCCCOc1ccnc(C[S+]([O-])c2nc3ccccc3[nH]2)c1C (stereo not shown) [rabeprazole]
- Gastric pH around the time of atazanavir administration ([2]; pretreatment with rabeprazole, after light meal): ~3

- AUClast lost due to rabeprazole that was restored by addition of BHCl [8]: 12%
- Differences in Tmax across treatments [8]: No significant differences
- Individual decrease in AUClast and Cmax after rabeprazole pretreatment [8]: 11-48%
- Mean exposure lost due to rabeprazole that was restored by addition of BHCl [8]: 12-13%
- Mean plasma concentration in Treatment C compared with Treatment B ([8]; 1.5 h): 3.4 times
Compound: COC(=O)N[C@H](C(=O)N[C@@H](Cc1ccccc1)[C@@H](O)CN(Cc1ccc(-c2ccccn2)cc1)NC(=O)[C@@H](NC(=O)OC)C(C)(C)C)C(C)(C)C [Atazanavir]
- Reductions in boosted atazanavir exposures ([4]; omeprazole 20 mg once daily): 39-46%
- Exposure reductions ([4]; ritonavir-boosted atazanavir with omeprazole 40 mg once daily, light meal): 72-76%
- Inhibitory effect of a known P-gp inhibitor on atazanavir efflux ([5]; pH 5.5): 78%
- Inhibitory effect of a known P-gp inhibitor on atazanavir efflux ([5]; pH 7.4): 245%
- Solubility ([6]; pH 2): 5200 µg/mL (≈ 7.38 mM)
- Solubility ([6]; pH 4): < 5 µg/mL
- Increase in atazanavir AUC [7]: 238%
- Increase in atazanavir Cmax [7]: 86%

Compound: COc1ccc2[nH]c([S+]([O-])Cc3ncc(C)c(OC)c3C)nc2c1 (stereo not shown) [omeprazole]
- Gastric pH around the time of atazanavir administration ([1]; pretreatment with high-dose omeprazole): ~6

- AUClast lost due to rabeprazole that was restored by addition of BHCl [8]: 13%
- Cmax lost due to rabeprazole that was restored by addition of BHCl [8]: 12%
Compound: CC(C)c1nc(CN(C)C(=O)N[C@H](C(=O)N[C@@H](Cc2ccccc2)C[C@H](O)[C@H](Cc2ccccc2)NC(=O)OCc2cncs2)C(C)C)cs1 [Ritonavir]
